From patent US12741974B2, “Compounds constituting C20-modified salinomycin derivatives, a method for obtaining the same, a composition containing the same, a use of said compounds and a method for obtaining an intermediate product” (FILECLO SP. Z O.O., priority 2020, dated 2021)

What was measured:
Type in all cases: cell-based
B16-F0 (murine melanoma) = assay: In vitro cytotoxicity test, SRB assay, 72 h incubation with compound; conditions: for IC50: B16-F0 murine melanoma, SRB, 72 h; for SI B16-F0: selectivity coefficient, BALB/3T3 versus B16-F0
Description: (§1) In vitro cytotoxicity tests were performed according to the procedure described below. […] The solvent for further dilutions was a culture medium.
(§2) The experiments were repeated at least 3 times.

[1] = test system: MCF-7 (human breast cancer); assay: as above; conditions: for IC50: MCF-7 human breast cancer, SRB, 72 h; for SI MCF-7: selectivity coefficient, BALB/3T3 versus MCF-7
Description: as §1, §2

[2] = test system: LoVo/DX (drug-resistant human colon cancer); assay: as above; conditions: for IC50: LoVo/DX drug-resistant human colon cancer, SRB, 72 h; for RI: drug resistance coefficient, LoVo/DX versus LoVo, 4320 min; for SI LoVo/DX: selectivity coefficient, BALB/3T3 versus LoVo/DX
Description: as §1, §2

Hs294T (human melanoma) = assay: as above; conditions: for IC50: Hs294T human melanoma, SRB, 72 h; for SI Hs294T: selectivity coefficient, BALB/3T3 versus Hs294T
Description: as §1, §2

[3] = test system: LoVo (drug-sensitive human colon cancer); assay: as above; conditions: for IC50: LoVo drug-sensitive human colon cancer, SRB, 72 h; for SI LoVo: selectivity coefficient, BALB/3T3 versus LoVo
Description: as §1, §2

[4] = test system: MV-4-11 (human biphenotypic leukaemia); assay: In vitro cytotoxicity test, MTT assay, 72 h incubation with compound; conditions: for IC50: MV-4-11 human biphenotypic leukaemia, MTT, 72 h; for SI MV-4-11: selectivity coefficient, BALB/3T3 versus MV-4-11
Description: as §1, §2
After 4 hours of incubation at 37° C., 80 μL of lysis buffer was added to each well.

[5] = In vitro cytotoxicity test on normal cells, SRB assay, 72 h incubation with compound; conditions: mouse, balb/3t3 cells, normal murine fibroblasts, read-out: IC50 BALB/3T3
Description: Normal murine BALB/3T3 fibroblasts were also used in the tests for determining the selectivity coefficients of the compounds used in the assays.
as §1, §2

Row | Structure (SMILES) | IC50 (B16-F0 (murine melanoma); Mus musculus, B16F0) | SI B16-F0 (B16-F0 (murine melanoma)) | IC50 ([1]; MCF7) | SI MCF-7 [1] | IC50 [2] | RI [2] | SI LoVo/DX [2] | IC50 (Hs294T (human melanoma); Hs 294T) | SI Hs294T (Hs294T (human melanoma)) | IC50 [3] | SI LoVo [3] | IC50 ([4]; MV4-11) | SI MV-4-11 [4] | CC50 at 72 h [5] | IC50 (B16-F0 (murine melanoma)) | IC50 [1] | IC50 (Hs294T (human melanoma)) | IC50 [4]
1 | CC[C@@H](C(=O)[C@@H](C)[C@@H](O)[C@H](C)[C@@H]1O[C@@H]([C@@H](CC)C(=O)O)CC[C@@H]1C)[C@H]1O[C@]2(C=C[C@@H](N)[C@]3(CC[C@@](C)([C@H]4CC[C@](O)(CC)[C@H](C)O4)O3)O2)[C@H](C)C[C@@H]1C [(3), C20-aminosalinomycin, reference compound] | 9440 nM | 7.0 | 34900 nM | 1.9 | 20500 nM | 0.6 | 3.2 | 9730 nM | 6.8 | 33100 nM | 2.0 | 5920 nM | 11.2 | 66400 nM |  |  |  | 
2 | CC[C@@H](C(=O)[C@@H](C)[C@@H](O)[C@H](C)[C@@H]1O[C@@H]([C@@H](CC)C(=O)O)CC[C@@H]1C)[C@H]1O[C@]2(C=C[C@@H](NC(=O)CCl)[C@]3(CC[C@@](C)([C@H]4CC[C@](O)(CC)[C@H](C)O4)O3)O2)[C@H](C)C[C@@H]1C [(11), C20-dehydroxy-C20-aminosalinomycin N-chloroacetamide] | 400 nM | 6.5 | 810 nM | 3.2 | 620 nM | 0.7 | 4.2 | 60 nM | 43.2 | 930 nM | 2.8 | 280 nM | 9.2 | 2590 nM |  |  |  | 
3 | CC[C@@H](C(=O)[C@@H](C)[C@@H](O)[C@H](C)[C@@H]1O[C@@H]([C@@H](CC)C(=O)O)CC[C@@H]1C)[C@H]1O[C@]2(C=C[C@@H](NC(=O)CCCCl)[C@]3(CC[C@@](C)([C@H]4CC[C@](O)(CC)[C@H](C)O4)O3)O2)[C@H](C)C[C@@H]1C [(12), C20-dehydroxy-C20-aminosalinomycin N-4-chlorobutyramide] | 560 nM | 30.5 | 900 nM | 19.0 | 1550 nM | 2.5 | 11.0 | 70 nM | 243.9 | 630 nM | 27.1 | 200 nM | 85.4 | 17100 nM |  |  |  | 
4 | CC[C@@H](C(=O)[C@@H](C)[C@@H](O)[C@H](C)[C@@H]1O[C@@H]([C@@H](CC)C(=O)O)CC[C@@H]1C)[C@H]1O[C@]2(C=C[C@@H](NC(=O)COC)[C@]3(CC[C@@](C)([C@H]4CC[C@](O)(CC)[C@H](C)O4)O3)O2)[C@H](C)C[C@@H]1C [(13), C20-dehydroxy-C20-aminosalinomycin N-methoxyacetamide] | 530 nM | 26.4 | 1310 nM | 10.7 | 2330 nM | 3.5 | 6.0 | 60 nM | 233.5 | 670 nM | 20.9 | 270 nM | 51.9 | 14000 nM |  |  |  | 
5 | CC[C@@H](C(=O)[C@@H](C)[C@@H](O)[C@H](C)[C@@H]1O[C@@H]([C@@H](CC)C(=O)O)CC[C@@H]1C)[C@H]1O[C@]2(C=C[C@@H](NC(=O)c3ccc(CCl)cc3)[C@]3(CC[C@@](C)([C@H]4CC[C@](O)(CC)[C@H](C)O4)O3)O2)[C@H](C)C[C@@H]1C [(16), C20-dehydroxy-C20-aminosalinomycin N-(4-chloromethyl)benzamide] | 480 nM | 5.2 | 580 nM | 4.3 | 630 nM | 2.2 | 4.0 | 30 nM | 83.3 | 290 nM | 8.6 | 30 nM | 83.3 | 2500 nM |  |  |  | 
6 | CC[C@@H](C(=O)[C@@H](C)[C@@H](O)[C@H](C)[C@@H]1O[C@@H]([C@@H](CC)C(=O)O)CC[C@@H]1C)[C@H]1O[C@]2(C=C[C@@H](NC(=O)OC)[C@]3(CC[C@@](C)([C@H]4CC[C@](O)(CC)[C@H](C)O4)O3)O2)[C@H](C)C[C@@H]1C [(18), C20-dehydroxy-C20-aminosalinomycin N-methylcarbamate] | 50 nM | 35.2 | 570 nM | 3.1 | 160 nM | 0.3 | 11.0 | 20 nM | 88.0 | 480 nM | 3.7 | 70 nM | 25.1 | 1760 nM |  |  |  | 
7 | CCOC(=O)N[C@@H]1C=C[C@]2(O[C@H]([C@@H](CC)C(=O)[C@@H](C)[C@@H](O)[C@H](C)[C@@H]3O[C@@H]([C@@H](CC)C(=O)O)CC[C@@H]3C)[C@@H](C)C[C@H]2C)O[C@@]12CC[C@@](C)([C@H]1CC[C@](O)(CC)[C@H](C)O1)O2 [(19), C20-dehydroxy-C20-aminosalinomycin N-ethylcarbamate] | 30 nM | 32.3 | 540 nM | 1.8 | 43100 nM | 269.4 | 0.02 | 10 nM | 97.0 | 160 nM | 6.1 | 40 nM | 24.3 | 970 nM |  |  |  | 
8 | CC[C@@H](C(=O)[C@@H](C)[C@@H](O)[C@H](C)[C@@H]1O[C@@H]([C@@H](CC)C(=O)O)CC[C@@H]1C)[C@H]1O[C@]2(C=C[C@@H](NC(=O)OCC(C)(C)C)[C@]3(CC[C@@](C)([C@H]4CC[C@](O)(CC)[C@H](C)O4)O3)O2)[C@H](C)C[C@@H]1C [(20), C20-dehydroxy-C20-aminosalinomycin N-neopentylcarbamate] | 640 nM | 5.1 | 2380 nM | 1.4 | 640 nM | 0.8 | 5.1 | 280 nM | 11.6 | 820 nM | 4.0 | 360 nM | 9.0 | 3240 nM |  |  |  | 
9 | CCCNC(=O)N[C@@H]1C=C[C@]2(O[C@H]([C@@H](CC)C(=O)[C@@H](C)[C@@H](O)[C@H](C)[C@@H]3O[C@@H]([C@@H](CC)C(=O)[O-])CC[C@@H]3C)[C@@H](C)C[C@H]2C)O[C@@]12CC[C@@](C)([C@H]1CC[C@](O)(CC)[C@H](C)O1)O2.[Na+] [(23), propylurea of C20-dehydroxy-C20-aminosalinomycin] | 70 nM | 22.0 | 370 nM | 4.2 | 150 nM | 2.5 | 10.3 | 10 nM | 154.0 | 60 nM | 25.7 | 1.1 nM | 1400.0 | 1540 nM |  |  |  | 
10 | CCCCNC(=O)N[C@@H]1C=C[C@]2(O[C@H]([C@@H](CC)C(=O)[C@@H](C)[C@@H](O)[C@H](C)[C@@H]3O[C@@H]([C@@H](CC)C(=O)[O-])CC[C@@H]3C)[C@@H](C)C[C@H]2C)O[C@@]12CC[C@@](C)([C@H]1CC[C@](O)(CC)[C@H](C)O1)O2.[Na+] [(24), butylurea of C20-dehydroxy-C20-aminosalinomycin] | 50 nM | 16.0 | 400 nM | 2.0 | 110 nM | 1.6 | 7.3 | 40 nM | 20.0 | 70 nM | 11.4 | 1 nM | 800.0 | 800 nM |  |  |  | 
11 | N.N.[Cl][Pt][Cl] [cisplatin, reference compound] |  |  |  |  | 8000 nM | 1.1 |  |  |  | 6970 nM |  |  |  |  | 3840 nM | 7170 nM | 4010 nM | 3400 nM
